Data: patent publication US11179391B2, “Compound with kinase inhibitory activity and preparation method and use thereof” (priority 2017, dated 2021)

Tests used:
[1] = target: CDK2/CycA2 (Homo sapiens, UniProt P24941); test: Determination of CDK activity (Caliper mobility shift, FAM-P8 peptide): CDK2; format: biochemical; conditions: CDK2/CycA2; read-out: CDK2 enzymatic inhibitory activity (IC50)
[2] = Pharmacokinetic study in rats; format: in vivo, Sprague-Dawley rats; conditions: for F / Cmax / Tmax / clearance / half-life / AUC(0-t): male Sprague-Dawley rats; for F: iv 2 mg/kg and oral 5 mg/kg; for Cmax / Tmax / clearance / half-life / AUC(0-t): rat, plasma, study dosed iv 2 mg/kg and oral 5 mg/kg, route of this parameter not given; for AUC(0-t): read-out: AUC0-24 h
Method: Healthy adult Sprague-Dawley rats, male, 7-10 weeks old, weighing 240-270 g, provided by Beijing Vital River Laboratory Animal Technology Co., Ltd., with an animal certificate number of 1140070278736.
Test compounds of the invention: example 17, 33, 40, and 57.
Intravenous administration solvent system of compounds: 10% (V/V) NMP and 90% (20% (V/V)) SBE-β-CD in 16.667 mM PBS with a concentration of 1.0 mg/mL.
Oral administration solvent system of compounds: pure water system containing 0.1% hydroxyethyl cellulose and 0.5% Tween-80, with a concentration of 1 mg/mL.
Intravenous administration: 3 male Sprague-Dawley rats of each test compound were injected intravenously after fasting overnight, with a dose of 2 mg/kg, and the dosing volume was 2 mL/kg. […]
Before the administration, and after administration of 0.0833 (iv), 0.25, 0.5, 1, 2, 4, 8, 12, and 24 h, the jugular vein puncture (approximately 0.15 mL per time point) of each animal was performed by collecting blood from polypropylene tubes. All blood samples were transferred to pre-cooled EDTA-K2 test tubes or pre-cooled plastic microcentrifuge tubes containing 3 μL of 0.5 M EDTA-K2 as anticoagulant and placed on wet ice until centrifugation. Each collected blood was centrifuged at 4° C. for 15 minutes, and plasma was collected. All plasma would be stored in a freezer at about −80° C. until LCMS/MS detection.

[3] = target: CDK6/cycD3 (Homo sapiens, UniProt Q00534); test: Determination of CDK activity (Caliper mobility shift, FAM-P8 peptide): CDK6; format: biochemical; conditions: CDK6/cycD3; read-out: CDK6 enzymatic inhibitory activity (IC50)
Method in brief: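 GST-CDK6(1-326)/cycD3 with FAM-P8 peptide and ATP, after 10 min room-temperature enzyme–compound preincubation; reaction at 28 °C, then EDTA stop. Substrate conversion read by Caliper mobility shift; inhibition from no-compound and no-enzyme controls, IC50 fitted over 10-point dilution in DMSO.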

[4] = target: CDK9/cyclinTl (Homo sapiens, UniProt P50750); test: Determination of CDK activity (Caliper mobility shift, FAM-P8 peptide): CDK9; format: biochemical; conditions: CDK9/cyclinTl; read-out: CDK9 enzymatic inhibitory activity (IC50)
[5] = target: CDK7/CyclinH/MAT1 (Homo sapiens, UniProt P50613); test: Determination of CDK activity (Caliper mobility shift, FAM-P8 peptide): CDK7; format: biochemical; conditions: CDK7/CyclinH/MAT1; read-out: CDK7 enzymatic inhibitory activity (IC50)
Method in brief: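 His-CDK7/GST-MAT1/cyclin H preincubated with compound (10-point series) 10 min at room temperature, then reacted with FAM-P8 peptide plus ATP at 28 °C for a set time before stopping. Peptide conversion read by Caliper mobility shift; converted to % inhibition vs controls and IC50 fitted.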

[6] = target: CDK1/CyclinB (Homo sapiens, UniProt P06493); test: Determination of CDK activity (Caliper mobility shift, FAM-P8 peptide): CDK1; format: biochemical; conditions: CDK1/CyclinB; read-out: CDK1 enzymatic inhibitory activity (IC50)
[7] = target: CDK4/CycD3 (Homo sapiens, UniProt P11802); test: Determination of CDK activity (Caliper mobility shift, FAM-P8 peptide): CDK4; format: biochemical; conditions: CDK4/CycD3; read-out: CDK4 enzymatic inhibitory activity (IC50)
Method in brief: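 GST-CDK4(1-303)/GST-CycD3(1-292) was preincubated with compound for 10 min at room temperature, then FAM-P8 peptide and ATP were added; the reaction ran at 28 °C and was stopped with EDTA-containing stop buffer. Peptide conversion was read by Caliper mobility shift. A 10-point dilution series was fitted for IC50.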

[8] = system: Human colorectal cancer Colo-205 cells; test: Pharmacodynamic study on mouse Colo-205 model (subcutaneous xenograft); format: in vivo, BALB/c nude mice; conditions: Colo-205 model, mesylate, 50 mg/kg PO × 28 days
Text: BALB/c nude mice, 6-8 weeks old, weighing 12-14 g, female, provided by Shanghai Lab Animal Research Center (Shanghai Xipuer-Beikai) with an animal certificate No: 2008001682093.
The experiment was started after 3-7 days in the experimental environment when the animals arrived. Animals were housed in IVC (independent air supply system) cages (Four animals per cage) in SPF grade experimental animal facilities. Each cage animal information card contained the number of animals in the cage, sex, strain, receiving date, dosing schedule, experiment number, group and start date of the experiment. All cages, bedding, and drinking water were sterilized before use and were updated twice a week.
4.3 Tumor Cell Inoculation Method
Human colorectal cancer Colo-205 cells (ATCC-CCL-222) were cultured in vitro in monolayer under the conditions of RPMI 1640 medium with 10% fetal bovine serum, 100 U/mL penicillin and 100 μg/mL streptomycin, and 37° C. 5% CO2 incubator. The passage was routinely digested with trypsin-EDTA twice a week. When the cell saturation was up to 80%-90% and reached the requirement, the cells were collected, counted and inoculated. 0.2 mL (5×10^6) Colo-205 cells were subcutaneously inoculated on the right back of each mouse, and mice were randomly grouped and dosed when the average tumor volume reached 163 mm^3.
4.14 mL of lactic acid was added to a large beaker containing 800 mL of deionized water, and the pH was adjusted to 4.0 with 5 N NaOH. Then the volume was fixed to 1,000 mL to obtain 50 mmol/L sodium lactate buffer.
The subcutaneous tumor volume of nude mice was measured 2-3 times a week, and the mice were weighed, and the data were recorded.
4.6 Analysis and Evaluation
Experimental evaluation index: the tumor growth inhibition rate TGI (%) or the relative tumor proliferation rate T/C (%) was used for evaluation, wherein T was the experimental group, and C was the vehicle group.

[9] = rat plasma, at the dose of 10 mg/kg

Sequence of CDK9/cyclinTl (P50750 whole entry): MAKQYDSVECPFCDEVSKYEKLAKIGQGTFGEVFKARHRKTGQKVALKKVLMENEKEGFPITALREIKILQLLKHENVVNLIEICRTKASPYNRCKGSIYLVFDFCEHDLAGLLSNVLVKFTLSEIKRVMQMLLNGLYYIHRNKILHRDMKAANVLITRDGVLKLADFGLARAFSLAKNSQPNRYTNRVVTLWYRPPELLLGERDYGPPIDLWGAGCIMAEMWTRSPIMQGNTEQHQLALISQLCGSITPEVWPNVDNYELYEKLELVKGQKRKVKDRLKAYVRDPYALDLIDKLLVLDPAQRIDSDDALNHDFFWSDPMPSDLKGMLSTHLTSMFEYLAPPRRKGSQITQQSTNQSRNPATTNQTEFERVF
Sequence of CDK9/cyclinTl (O60563 whole entry partner): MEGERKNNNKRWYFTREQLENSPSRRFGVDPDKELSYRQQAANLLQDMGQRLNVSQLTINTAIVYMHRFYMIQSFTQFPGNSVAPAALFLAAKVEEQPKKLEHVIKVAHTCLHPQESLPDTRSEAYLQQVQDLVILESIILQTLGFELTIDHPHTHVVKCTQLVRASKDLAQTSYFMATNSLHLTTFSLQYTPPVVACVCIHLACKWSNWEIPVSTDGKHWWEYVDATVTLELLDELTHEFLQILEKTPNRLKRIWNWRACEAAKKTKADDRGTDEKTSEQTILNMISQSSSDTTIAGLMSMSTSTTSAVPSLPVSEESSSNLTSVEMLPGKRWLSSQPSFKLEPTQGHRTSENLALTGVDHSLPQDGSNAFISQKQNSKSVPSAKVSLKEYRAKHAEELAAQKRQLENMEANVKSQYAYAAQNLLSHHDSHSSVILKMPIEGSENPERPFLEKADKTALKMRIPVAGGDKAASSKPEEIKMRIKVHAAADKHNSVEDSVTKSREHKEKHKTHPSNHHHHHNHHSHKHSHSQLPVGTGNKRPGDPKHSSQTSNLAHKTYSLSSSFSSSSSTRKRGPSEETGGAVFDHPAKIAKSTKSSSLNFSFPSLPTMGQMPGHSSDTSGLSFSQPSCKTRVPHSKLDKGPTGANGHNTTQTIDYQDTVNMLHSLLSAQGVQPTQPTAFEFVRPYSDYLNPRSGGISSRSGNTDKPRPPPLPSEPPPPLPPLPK
Sequence of CDK6/cycD3 (Q00534 whole entry): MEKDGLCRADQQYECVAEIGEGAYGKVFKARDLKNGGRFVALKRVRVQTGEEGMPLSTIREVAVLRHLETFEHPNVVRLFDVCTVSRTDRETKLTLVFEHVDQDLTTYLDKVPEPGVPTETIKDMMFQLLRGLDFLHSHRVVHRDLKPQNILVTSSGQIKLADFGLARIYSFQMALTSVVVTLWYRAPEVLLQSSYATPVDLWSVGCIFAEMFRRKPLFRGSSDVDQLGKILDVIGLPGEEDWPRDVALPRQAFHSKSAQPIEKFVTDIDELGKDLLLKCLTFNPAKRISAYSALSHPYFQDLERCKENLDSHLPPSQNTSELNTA
Sequence of CDK6/cycD3 (P30281 whole entry partner): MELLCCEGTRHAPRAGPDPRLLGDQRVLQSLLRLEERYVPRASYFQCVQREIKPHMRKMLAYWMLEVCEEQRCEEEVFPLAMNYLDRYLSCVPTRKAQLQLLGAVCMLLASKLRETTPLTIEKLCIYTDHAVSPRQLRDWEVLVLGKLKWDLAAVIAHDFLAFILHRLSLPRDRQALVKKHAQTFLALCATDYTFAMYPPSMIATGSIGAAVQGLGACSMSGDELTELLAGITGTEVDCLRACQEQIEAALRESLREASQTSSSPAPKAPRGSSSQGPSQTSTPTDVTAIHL
Sequence of CDK4/CycD3 (P11802 whole entry): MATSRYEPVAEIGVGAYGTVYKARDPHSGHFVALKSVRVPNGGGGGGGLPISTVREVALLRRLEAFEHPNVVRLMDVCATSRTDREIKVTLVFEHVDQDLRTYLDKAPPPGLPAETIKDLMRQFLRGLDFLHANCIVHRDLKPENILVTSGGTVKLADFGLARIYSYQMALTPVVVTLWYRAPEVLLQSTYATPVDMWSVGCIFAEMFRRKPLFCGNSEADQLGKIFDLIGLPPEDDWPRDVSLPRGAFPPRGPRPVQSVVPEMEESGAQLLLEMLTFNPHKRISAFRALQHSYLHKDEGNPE
Sequence of CDK4/CycD3 (P30281 whole entry partner): as the sequence (P30281 whole entry partner) above
Sequence of CDK1/CyclinB (P06493 whole entry): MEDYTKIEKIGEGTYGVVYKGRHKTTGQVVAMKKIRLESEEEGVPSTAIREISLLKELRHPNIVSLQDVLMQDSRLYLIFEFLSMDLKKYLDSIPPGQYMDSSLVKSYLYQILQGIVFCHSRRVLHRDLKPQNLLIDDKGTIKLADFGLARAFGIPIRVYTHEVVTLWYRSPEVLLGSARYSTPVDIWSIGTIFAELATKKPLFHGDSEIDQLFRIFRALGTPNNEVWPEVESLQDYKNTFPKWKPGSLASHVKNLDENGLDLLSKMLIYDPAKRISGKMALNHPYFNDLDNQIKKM
Sequence of CDK1/CyclinB (P14635 whole entry partner): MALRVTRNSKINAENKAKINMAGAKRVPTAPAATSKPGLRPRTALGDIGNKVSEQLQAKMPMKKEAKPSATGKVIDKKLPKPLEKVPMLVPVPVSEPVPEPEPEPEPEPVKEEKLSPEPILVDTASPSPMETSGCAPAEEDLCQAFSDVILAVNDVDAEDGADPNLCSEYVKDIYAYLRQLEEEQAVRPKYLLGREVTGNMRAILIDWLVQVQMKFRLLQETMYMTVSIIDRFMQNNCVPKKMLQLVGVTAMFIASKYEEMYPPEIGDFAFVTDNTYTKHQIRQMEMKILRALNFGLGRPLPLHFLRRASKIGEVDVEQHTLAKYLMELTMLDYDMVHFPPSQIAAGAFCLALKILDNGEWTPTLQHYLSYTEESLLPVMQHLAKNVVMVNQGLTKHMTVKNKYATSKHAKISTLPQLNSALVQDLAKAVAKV
Sequence of CDK7/CyclinH/MAT1 (P50613 whole entry): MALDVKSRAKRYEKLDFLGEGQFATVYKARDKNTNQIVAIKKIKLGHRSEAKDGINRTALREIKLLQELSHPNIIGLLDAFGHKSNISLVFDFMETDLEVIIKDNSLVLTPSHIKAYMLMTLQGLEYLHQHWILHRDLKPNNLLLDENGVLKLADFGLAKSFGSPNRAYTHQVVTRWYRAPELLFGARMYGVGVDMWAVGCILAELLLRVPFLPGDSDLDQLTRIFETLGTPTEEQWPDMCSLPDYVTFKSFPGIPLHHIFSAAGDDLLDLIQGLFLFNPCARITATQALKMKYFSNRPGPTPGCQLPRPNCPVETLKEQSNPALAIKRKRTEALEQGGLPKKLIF
Sequence of CDK7/CyclinH/MAT1 (P51946 whole entry partner): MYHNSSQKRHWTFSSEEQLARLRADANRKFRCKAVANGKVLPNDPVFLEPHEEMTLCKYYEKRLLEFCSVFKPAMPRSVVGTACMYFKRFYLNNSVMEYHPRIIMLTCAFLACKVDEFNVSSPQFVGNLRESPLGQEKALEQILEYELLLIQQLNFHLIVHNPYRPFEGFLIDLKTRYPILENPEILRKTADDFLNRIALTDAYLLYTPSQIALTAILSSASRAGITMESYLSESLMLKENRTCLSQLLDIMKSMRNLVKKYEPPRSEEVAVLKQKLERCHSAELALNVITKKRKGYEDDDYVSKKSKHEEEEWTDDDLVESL
Sequence of CDK7/CyclinH/MAT1 (P51948 whole entry partner): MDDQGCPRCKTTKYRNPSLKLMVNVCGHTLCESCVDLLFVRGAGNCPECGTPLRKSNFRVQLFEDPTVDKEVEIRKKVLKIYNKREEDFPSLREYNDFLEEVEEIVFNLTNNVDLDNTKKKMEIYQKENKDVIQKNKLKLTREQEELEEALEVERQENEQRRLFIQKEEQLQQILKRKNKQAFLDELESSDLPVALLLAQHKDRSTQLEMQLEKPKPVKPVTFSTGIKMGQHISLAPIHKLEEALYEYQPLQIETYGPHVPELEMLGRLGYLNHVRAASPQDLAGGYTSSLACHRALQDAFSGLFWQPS

| Compound | IC50 [1] [nM] | F [2] [%] | Cmax [2] [ng/mL] | Tmax [2] [h] | clearance [2] [mL/min/kg] | half-life [2] [h] | AUC(0-t) [2] [ng·h/mL] | IC50 [3] [nM] | IC50 [4] [nM] | IC50 [5] [nM] | IC50 [6] [nM] | IC50 [7] [nM] | Tumor volume (day 0) ([8]; baseline at start of dosing) [mm^3] | Tumor volume (day 28) [8] [mm^3] | TGI tumor growth inhibition rate ([8]; day 28) [%] | clearance in rat plasma (in words) [2, 9] | half-life in rat plasma (in words) [2, 9] | level of exposure at 24 h in rat plasma (in words) [2, 9] |
| --- | --- | --- | --- | --- | --- | --- | --- | --- | --- | --- | --- | --- | --- | --- | --- | --- | --- | --- |
| CCN1CCC(C(O)c2ccc(Nc3ncc(F)c(-c4cc(F)c5nc(C)n(C(C)C)c5c4)n3)nc2)CC1 (single isomer, unassigned) [Example 40, (R or S)-(1-ethylpiperidin-4-yl)(6-((5-fluoro-4-(4-fluoro-1-isopropyl-2-methyl-1H-benzo [d]imidazol-6-yl)pyrimidin-2-yl)amino)pyridin-3-yl) methanol] | < 100 | 13.3 | 12.9 | 4 | 72.8 | 11.9 | 132 | < 100 | < 100 | 500 to 1000 | < 100 | < 100 |  |  |  |  |  |  |
| CCN1CCN(Cc2ccc(Nc3ncc(F)c(-c4cc(F)c5nc(C)n(C(C)C)c5c4)n3)nc2)CC1 [Abemaciclib, reference compound] |  |  |  |  |  |  |  |  |  |  |  |  | 198 | 749 | 74.5 |  |  |  |
| C=C(c1ccc(Nc2ncc(F)c(-c3cc(F)c4nc(C)n(C(C)C)c4c3)n2)nc1)C1CCN(CC)CC1 [Example 33, N-(5-(1-(1-ethylpiperidin-4-yl)vinyl)pyridin-2-yl)-5-fluoro-4-(4-fluoro-1-isopropyl-2-methyl-1H-benzo[d]imidazol-6-yl) pyrimidin-2-amine] | < 100 | 43.7 | 161 | 8 | 12.1 | 8.19 | 2570 | < 100 | < 100 | 1000 to 10000 | 100 to 500 | < 100 |  |  |  | lower clearance | longer half-life | high level of exposure |
